Key:
[1] = target: T1, urease, catalytic subunit UreB (Helicobacter pylori, UniProt P69996); experiment: cryo-EM structure at […] Å; phenol red assay on purified urease (IC50 […], Ki by Cheng-Prusoff); assay type: biochemical
T1 construct: with UreA

[2] = target: T1, urease, catalytic subunit UreB; experiment: phenol red assay on purified urease (IC50 […], Ki by Cheng-Prusoff); assay type: biochemical

T1 sequence (P69996 whole entry): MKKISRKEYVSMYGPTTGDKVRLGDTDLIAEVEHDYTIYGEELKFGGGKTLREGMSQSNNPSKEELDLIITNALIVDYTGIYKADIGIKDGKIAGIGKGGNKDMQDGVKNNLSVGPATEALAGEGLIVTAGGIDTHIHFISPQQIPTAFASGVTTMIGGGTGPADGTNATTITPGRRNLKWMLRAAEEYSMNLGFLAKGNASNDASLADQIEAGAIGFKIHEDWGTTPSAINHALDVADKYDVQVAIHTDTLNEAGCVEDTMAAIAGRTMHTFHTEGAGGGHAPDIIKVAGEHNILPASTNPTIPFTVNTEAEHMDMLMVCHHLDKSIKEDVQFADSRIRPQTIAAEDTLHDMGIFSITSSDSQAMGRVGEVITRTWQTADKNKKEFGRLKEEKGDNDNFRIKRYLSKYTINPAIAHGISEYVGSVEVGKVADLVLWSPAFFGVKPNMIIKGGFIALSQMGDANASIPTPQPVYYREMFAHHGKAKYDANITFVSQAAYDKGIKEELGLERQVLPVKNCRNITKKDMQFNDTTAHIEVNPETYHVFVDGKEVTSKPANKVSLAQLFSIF
T1 sequence (P14916 whole entry, further chain): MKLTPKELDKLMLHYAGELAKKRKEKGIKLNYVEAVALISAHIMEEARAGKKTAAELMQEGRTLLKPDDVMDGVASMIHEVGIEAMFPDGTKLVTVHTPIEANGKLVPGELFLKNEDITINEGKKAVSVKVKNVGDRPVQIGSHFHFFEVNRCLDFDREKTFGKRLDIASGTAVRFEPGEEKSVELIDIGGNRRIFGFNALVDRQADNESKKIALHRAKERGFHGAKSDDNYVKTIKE

Compound | Ki [1] | Ki [2]
OCCS [BME, β-mercaptoethanol] | 435 µM | –
Cc1cc(C)cc(-n2ccnc2SCC(=O)NO)c1 [SHA, 2-{[1-(3,5-dimethylphenyl)-1H-imidazol-2-yl]sulfanyl}-N-hydroxyacetamide] | – | 0.63 µM

— PMC7801526, “Cryo-EM structure of Helicobacter pylori urease with an inhibitor in the active site at 2.0 Å resolution” (Nature Communications, 2021)
